Measured values from patent US20210161149A1, “METHOD OF CONTROLLING SOIL-BORNE DISEASES OF PLANTS” (NATIONAL AGRICULTURE AND FOOD RESEARCH ORGANIZATION, priority 2018, published 2021).

Assays:
[1] = tested on: Pythium ultimum strain MAFF425494; assay: Control of Pythium soil-borne disease in cucumber by a Pseudomonas bacterium combined with an amino acid; assay type: in vivo; settings: for effect on disease control ability of the Pseudomonas bacterium, averaged cucumber weight (FIG. 2): 10 mM amino acid combined with Pseudomonas protegens strain CHA0, n=12 per group
Method: The disease control abilities of a Pseudomonas bacterium and glutamic acid against an infectious disease caused by a Pythium (Pythium ultimum strain MAFF425494) as a soil pathogen were investigated using cucumber as a test plant.
(§1) Cucumber seeds were placed on a filter paper moistened with sterile water and left in darkness at 26° C. for 24 hours. Pseudomonas protegens strain CHA0 was used as a Pseudomonas bacterium and incubated with shaking in NYB medium (nutrient broth 25 g, yeast extract 5 g, H2O 1000 mL) under the conditions of 30° C. and 180 rpm for 24 hours. The broth culture of the Pseudomonas bacterium was centrifuged to remove supernatants, and the precipitate was suspended in sterile water to OD600=0.1.
Vermiculite was moistened by adding water. To the vermiculite, coarse cereal crops (millet) previously infected with a Pythium were added as they were, and mixing was done well. 7 g of the coarse cereal crops infected with a Pythium was added to 1 L of the vermiculite. Some portion of the vermiculite was left without adding the coarse cereal crops infected with a Pythium.
(§2) 50 mL of each prepared vermiculite was equally divided into sections (each 5 cm square and 5 cm deep) of a seedling tray with drainage holes at the bottom for water to drain out. Two grains of cucumber seeds observed to have germinated were seeded on each divided vermiculite.
The Pseudomonas bacterium and glutamic acid were applied to cucumber seeds and soils in their vicinity. To be specific, for each section of the seedling tray, 4 mL of the adjusted solution of the Pseudomonas bacterium was applied to cucumber seeds, and 15 mL of the vermiculite left without being infected with a Pythium was placed over the cucumber seeds. The seedling tray was soaked in water or an aqueous solution of 10 mM glutamic acid (L-glutamic acid) (10 mL per seedling tray section) contained in a vat. The applications of the Pseudomonas bacterium and glutamic acid were carried out within 2 hours after the seeding of cucumber seeds. The interval between the timings of applications of the Pseudomonas bacterium and glutamic acid was ensured to be not exceeding 1 hour.
The seedling tray was kept in a plant incubator set at 25° C. The light and dark periods were set to 16 and 8 hours, respectively. The cultivation period in the incubator was set to 2 weeks. Replacement of water or an aqueous solution of 10 mM glutamic acid in a vat was done every other day.
By using the same procedure as in Example 1, the effectiveness of combined use of the Pseudomonas bacterium with each of glutamic acid and histidine was investigated.
For application of histidine, an aqueous solution of 10 mM histidine (L-histidine) was prepared and used instead of the aqueous solution of glutamic acid used in Example 1. The number of cucumbers cultivated was n=12 for each group. After 2 weeks of cultivation, the weights of cucumbers were measured and averaged. Upon measurement of the weights of cucumbers, it was ensured that the vermiculite remaining on the roots of cucumbers was washed away carefully.
The effects of combined use of a Pseudomonas bacterium with other amino acids than histidine were investigated. In this example, not only glutamic acid (Glu), but also the following other amino acids: glutamine (Gln), glycine (Gly), leucine (Leu), phenylalanine (Phe), arginine (Arg), lysine (Lys), valine (Val), isoleucine (Ile) and tryptophane (Trp), were evaluated by using the same procedure as in Example 1. For each of these amino acids, an aqueous solution of 10 mM amino acid was prepared and used. In this example, Pseudomonas protegens strain Cab57 was used as a Pseudomonas bacterium, and all amino acids used were of the L-form.
The number of cucumbers cultivated in this example was n=12 to 18 for each group. As in Example 2, after 2 weeks of cultivation, the weights of cucumbers were measured and averaged. […]

[2] = tested on: Rhizoctonia solani strain MAFF726551; assay: Control of Rhizoctonia soil-borne disease in cucumber by a Pseudomonas bacterium combined with glutamic acid; assay type: in vivo; settings: 10 mM glutamic acid combined with Pseudomonas protegens strain Cab57, 5 days cultivation, n=8 to 12
Method: as §1, §2
The Pseudomonas bacterium and glutamic acid were applied to cucumber seeds and soils in their vicinity. […]
In this example, by using the same procedure as in Example 1, 1 g of coarse cereal crops infected with the Rhizoctonia was added to 1 L of vermiculite, instead of 7 g of coarse cereal crops infected with a Pythium. […] As in Example 3, for each of the averaged values of the cucumber weights after cultivation calculated for the different groups, a relative value was determined with respect to the averaged value for the group treated with the Pseudomonas bacterium alone, which was taken as 1.

SMILES | effect of combined use on the soil-borne disease control ability of the Pseudomonas bacterium (photograph, FIG. 1) ([1]; cucumber germinated seeds in vermiculite, 10 mM L-glutamic acid combined with Pseudomonas protegens strain CHA0, 2 weeks cultivation) | effect on disease control ability of the Pseudomonas bacterium, cucumber weight relative to bacterium alone = 1 (FIG. 3) ([1]; cucumber, 10 mM L-amino acid combined with Pseudomonas protegens strain Cab57, 2 weeks, n=12 to 18) | soil-borne disease control ability of glutamic acid itself (FIG. 1) ([1]; cucumber, 10 mM L-glutamic acid alone, no Pseudomonas bacterium, 2 weeks cultivation) | effect on disease control ability of the Pseudomonas bacterium, averaged cucumber weight (FIG. 2) ([1]; cucumber, 2 weeks) | effect on disease control ability of the Pseudomonas bacterium, cucumber weight relative to bacterium alone = 1 (FIG. 4) ([1]; cucumber, 10 mM glutamic acid combined with Pseudomonas sp. strain Os17, 2 weeks, n=17) | effect on soil-borne disease control ability of the Pseudomonas bacterium, cucumber weight relative to bacterium alone = 1 (FIG. 5) [2]
N[C@@H](CCC(=O)O)C(=O)O [glutamic acid, L-glutamic acid] | enhanced the soil-borne disease control ability of the Pseudomonas bacterium | exhibited a similar effect even on a different strain of Pseudomonas bacterium | seemed not to have a high soil-borne disease control ability | enhanced the disease control ability of the bacterium | exhibited a similar effect | exhibited similar enhancement of soil-borne disease control ability
N[C@@H](Cc1c[nH]cn1)C(=O)O [histidine, L-histidine, reference compound] |  |  |  | did not have a capability of enhancing the disease control ability of the Pseudomonas bacterium |  | 
